Here are results for 4 compounds from patent US5756462A, “Pore forming peptides from Geolycosa riogrande” (priority 1996, dated 1998).

“Also recorded” adds a separate entry of the source.

Holding throughout (assay type): cell-based
The subject of assay [1] is HL-60 cells. The assay is described as follows: Mobilization of intracellular Ca2+ after pertussis toxin pretreatment. The note with it: pretreatment 20 hrs with 100 ng/ml pertussis toxin. As for the experimental part: Increases in [Ca^2+ ]i arising from the mobilization of intracellular Ca^2+ were inhibited by pretreatment for 20 hrs with 100 ng/ml pertussis toxin (PTx).

For assay [2], the system named is HL-60 cells differentiated with dibutryl cAMP. The assay is described as follows: Mobilization of intracellular Ca2+ in fura-2 loaded differentiated HL-60 cells. The note with it: differentiated HL-60 cells loaded with fura-2. As for the experimental part:
The three peptides of the present invention isolated from the venom of the spider Geolycosa riogrande, designated Geolycosa 17, 15a and 15b, contain linear sequences of 25 (Geolycosa 17) or 27 (Geolycosa 15a and 15b) amino acids, lack cysteine, and are enriched in lysine. […] When tested at concentrations of 0.5 to 2 μM, all three peptides caused rapid and transient increases in [Ca^2+ ]i that persisted in the absence of extracellular Ca^2+ but were blocked when cellular stores of Ca^2+ were depleted by pretreatment with ionomycin.

In assay [3] the test system is HL-60 cells. As for the experimental part:
Uke the effect of many other pore formers, the effects of these peptides on EB uptake were augmented when the total extracellular divalent cation concentration was reduced to 0.1 mM and inhibited when extracellular Mg^2+ was increased from 1 to 5 mM.
The ability of Geolycosa 17 to form pores in membranes was tested in T3 fibroblasts, parathyroid cells, and differentiated and undifferentiated HL60 cells. Pore formation was assessed by measuring the permeability of the cells to ethidium bromide (EB, MW 394). Concentrations of Geolycosa 17 greater than 7.5 μM increased EB uptake in all cells tested.

For `Nc1ncnc2c1ncn2[C@@H]1O[C@H](COP(=O)(O)OP(=O)(O)OP(=O)(O)O)[C@@H](O)[C@H]1O` [ATP, reference compound], the “effect of PTx pretreatment on mobilization of intracellular Ca2+” value (“effect of PTx pretreatment” below) in the assay on HL-60 cells [1] is given as “blocked”.
In the case of `CC[C@H](C)[C@H](NC(=O)CN)C(=O)NCC(=O)N[C@@H](C)C(=O)N[C@H](C(=O)N[C@@H](CC(C)C)C(=O)N[C@@H](CCCCN)C(=O)N[C@H](C(=O)N[C@@H](CC(C)C)C(=O)N[C@H](C(=O)N[C@H](C(=O)NCC(=O)N[C@@H](CC(C)C)C(=O)N1CCC[C@H]1C(=O)N[C@@H](C)C(=O)N[C@@H](CC(C)C)C(=O)N[C@H](C(=O)N[C@@H](CO)C(=O)N[C@@H](Cc1c[nH]c2ccccc12)C(=O)N[C@H](C(=O)N[C@@H](CCCCN)C(=O)N[C@@H](CCCNC(=N)N)C(=O)N[C@@H](CCCCN)C(=O)N[C@@H](CCCNC(=N)N)C(=O)N[C@@H](CCC(N)=O)C(=O)N[C@@H](CCC(N)=O)C(N)=O)[C@@H](C)CC)[C@@H](C)CC)[C@@H](C)O)[C@@H](C)O)C(C)C)C(C)C` [melittin, reference compound], in assay [2], the “mobilization of intracellular Ca2+” value was “caused the mobilization of intracellular Ca^2+”. Moreover, in the assay on HL-60 cells [3], the “EB uptake / pore formation at concentrations effective in mobilizing intracellular Ca2+” value (from here on “EB uptake / pore formation”) is “caused significant pore formation”, the “permeabilization of cells indexed by uptake of ethidium bromide (EB)” value (“permeabilization of cells indexed” for short) is “permeabilized HL-60 cells” and the “rank order of potency for causing permeabilization of HL-60 cells” value (“rank order of potency” below) was “melittin>Geolycosa 15b>Geolycosa 17=Geolycosa 15a>mastoparan”. In the assay with HL-60 cells [3] (EB uptake, read-out: EC50 for causing pore formation), the EC50 was ~250 nM.
Take “Geolycosa 15a (KIKWLKAMKSIAKFIAKKQMKKHLGGE)”: the “mobilization of intracellular Ca2+” value in assay [2] is reported as “mobilize intracellular Ca^2+”. Besides, in the assay on HL-60 cells [3], the “EB uptake / pore formation” value is listed as “even less prone to cause increases in EB uptake”, the “permeabilization of cells indexed” value was “permeabilized cells”, the “potency relative to mastoparan” value is reported as “about twice as potent” and the “rank order of potency” value is “melittin>Geolycosa 15b>Geolycosa 17=Geolycosa 15a>mastoparan”. Further, the “effect of PTx on pore formation” value in the assay on HL-60 cells [3] (pertussis toxin pretreatment) is given as “without effect”. Moreover, the “effect of PTx pretreatment” value in the assay on HL-60 cells [1] was “blocks”.
Regarding “Geolycosa 15b (KIKWFKTMKSIAKFIAKEQMKKHLKGE)”, in assay [2], the “mobilization of intracellular Ca2+” value is recorded as “mobilize intracellular Ca^2+; also recorded: caused the mobilization of intracellular Ca^2+”. Further, in the assay on HL-60 cells [3], the “EB uptake / pore formation” value is reported as “little uptake of EB”; the “EB uptake at slightly higher concentrations than those mobilizing Ca2+” value is given as “a large uptake of EB”; the “permeabilization of cells indexed” value is “permeabilized cells”; the “potency relative to Geolycosa 15a and Geolycosa 17” value is “about twice as potent”. Besides, the “rank order of potency” value in the assay on HL-60 cells [3] is reported as “melittin>Geolycosa 15b>Geolycosa 17=Geolycosa 15a>mastoparan”. For the same compound, in the assay with HL-60 cells [1], the “effect of PTx pretreatment” value is listed as “failed to affect”.
